Columns and labels:
[1] = target: T1, LPA2 receptor (Homo sapiens, UniProt Q9HBW0); assay: calcium mobilization in Sf9 insect cells expressing LPA2; format: cell-based; parameters: expressed in transfected cells; host or cells: Sf9 insect cells
[2] = tested on: PKA; assay: PKA activation in PC-3 cells; format: cell-based, human
[3] = target: T1, LPA2 receptor; assay: GTP[γ-35S] binding assay, HEK293 T membranes, LPA2; format: biochemical; parameters: expressed in transfected cells; host or cells: HEK293 T cells (crude microsomal membranes); details: HEK293 transfected with LPA2, FIG. 59B
Protocol: OMPT also enhances GTP [γ-^35S] binding in the cell membrane of HEK293 T cells expressing LPA3. The procedures for these GTP [γ-^35S] binding assays involve co-transfection of HEK293 T cells with expression vectors encoding one of the receptors for LPA (LPA1, LPA2, or LPA3) or S1P (S1P3/Edg3) by calcium phosphate precipitation, together with plasmids encoding three G proteins (rat Gi2α, cow β1, and cow γ2). After about 48 hours, cells were harvested and crude microsomal membranes were prepared. Membranes containing about 5 μg of protein were incubated in 0.1 ml of GTP-binding buffer (50 mM Hepes, 100 mM NaCl, 10 mM MgCl2, pH7.5) having 5 μg of saponin, 0.1% fatty acid-free BSA, 10 μM GDP, 0.1 nM GTP[γ-^35S] (1200 Ci/mmole) together with indicated concentrations of LPA or OMPT for about 30 min at 30° C. Membranes were collected using a 96-well Brandel Cell Harvester (Gaithersburg, Md.), and bound radionuclide was determined using a Packard TopCount liquid scintillation counter.

[4] = tested on: PC-3 cells; assay: cellular proliferation and growth factor withdrawal-induced apoptosis; format: cell-based, human
[5] = tested on: vasodilator-stimulated protein (VASP); assay: VASP phosphorylation in PC-3 cells; format: cell-based, human
Protocol: The cells were then lysed in SDA sample buffer or ice-cold X-100 lysis buffer (1% Triton X-100, 50 mM HEPES [pH7.4], 150 mM NaCl, 1.5 mM MgCl2, 1 mM EGTA, 10% glycerol, 100 mM NaF, 10 mM Na pyrophosphate, and 1 mM aprotinin). Total cellular protein was resolved by SDS/PAGE, transferred to immobilon [poly (vinylidene difluoride)], and immunoblotted with antibodies following the protocols provided by manufactures. Immunocomplexes were visualized with an enhanced chemiluminescence detection kit (Amersham Pharmacia) using horseradish peroxidase-conjugated secondary antibodies (Bio-Rad).
To determine the mechanisms regulating LPA-induced cell migration, actin filament binding proteins that link receptor signaling to lamellipodia formation were evaluated.

[6] = tested on: OVCAR3 cells; assay: calcium mobilization assay in ovarian cancer OVCAR3 cells; format: cell-based, human; details: Homo sapiens, OVCAR-3; OVCAR3 cells; 95% confidence about 7.0 to about 11.5 nM
Protocol: (§1) The procedures for these calcium mobilization assays are as followed: OVCAR3 cells and PC-3 cells were cultured in RPMI 1640 medium with 10% FBS (fetal bovine serum). HT29 cells were cultured in DMEM (high glucose) medium with 10% FBS. All cells were cultured at about 37° C. in a humidified atmosphere with 5% CO2. After starvation in serum-free medium for about 12-24 hours, cells were harvested and loaded with about 1 μM of Indo-1 AM in serum-free medium for about 45 min at 37° C. Cells were washed in PBS and resuspended at 2×10^6 cells/ml in a [Ca^2+]i assay buffer (Sodium chloride, NaCl, about 140 mM, potassium chloride, KCl, about 2 mM, magnesium chloride, MgCl2, about 1 mM, calcium chloride, CaCl2, about 2 mM, in about 25 mM HEPES buffer at pH 7.4 with about 10 mM of glucose). Cytoplasmic [Ca^2+]i was determined at an excitation wavelength of about 331 nm and an emission wavelength of 410 nm using a fluorescence spectrophotometer (Hitachi, F-4000). Approximately 3×10^6 cells were used for [Ca^2+]l determination in a stirred quartz cuvette kept at about 37° C. OMPT or 18:1 LPA was dissolved in about 0.1% BSA/PBS solution and applied immediately to the cells. To test other LPA derivatives of the invention, cells were exposed to the derivatives for about 3 minutes or for a period of various times in time course related experiments before a LPA agonist, such as 18:1 LPA, OMPT, or other LPAs was applied into the cuvette.
(§2) The concentration of calcium mobilization giving the half-maximal response (EC50) was obtained from the concentration-response curve fitted to a sigmoidal logistic equation, with the maximal calcium response set to 100% using the GraphPad Prism. Maximal response value is expressed as mean +/−s.e.m. EC50 value is expressed with 95% confidence.

[7] = tested on: PC-3 cells; assay: membrane ruffling and cell migration in PC-3 cells; format: cell-based, human
[8] = target: T2, LPA3 receptor (Homo sapiens, UniProt Q9UBY5); assay: HA-Erk1 phosphorylation in HEK 293 T cells transfected with LPA3; format: cell-based; parameters: expressed in transfected cells; details: LPA3 transfected HEK 293 T; 0.01, 0.1, or 1 μM
T2 sequence (Q9UBY5 1-353): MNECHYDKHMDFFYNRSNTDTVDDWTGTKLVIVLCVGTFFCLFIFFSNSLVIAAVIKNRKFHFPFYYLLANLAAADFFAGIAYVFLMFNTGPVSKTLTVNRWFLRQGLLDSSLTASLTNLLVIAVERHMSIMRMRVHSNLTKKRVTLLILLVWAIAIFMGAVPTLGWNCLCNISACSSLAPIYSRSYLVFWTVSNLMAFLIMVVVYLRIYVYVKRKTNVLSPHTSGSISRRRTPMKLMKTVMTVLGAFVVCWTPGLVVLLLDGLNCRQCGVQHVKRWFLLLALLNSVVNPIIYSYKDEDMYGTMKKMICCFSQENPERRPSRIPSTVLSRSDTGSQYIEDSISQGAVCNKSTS
From the text: We have also tested kinase activation by the LPA3 receptor subtype using OMPT as a tool. We determined whether activation of the LPA3 receptor by OMPT can be linked to ERK activation (related to MAP kinase signaling pathway) in mammalian cells, HEK 293 T cells, by co-transfecting hemagglutinin (HA)-tagged Erk1 (HA-Erk1) with either a control vector or an expression vector having LPA1, LPA2, or LPA3. […] There is no phosphorylation of HA-Erk1 at lower concentration of LPA or OMPT in the absence of LPA receptors. […] Thus, the data confirmed that OMPT, an LPA derivative, is a selective agonist for LPA3 receptor subtype, capable of inducing MAPK activation.

[9] = tested on: HT29 cells; assay: calcium mobilization assay in colon cancer HT29 cells; format: cell-based; details: HT29 cells
Protocol: as §1, §2

T1 sequence (Q9HBW0 whole entry): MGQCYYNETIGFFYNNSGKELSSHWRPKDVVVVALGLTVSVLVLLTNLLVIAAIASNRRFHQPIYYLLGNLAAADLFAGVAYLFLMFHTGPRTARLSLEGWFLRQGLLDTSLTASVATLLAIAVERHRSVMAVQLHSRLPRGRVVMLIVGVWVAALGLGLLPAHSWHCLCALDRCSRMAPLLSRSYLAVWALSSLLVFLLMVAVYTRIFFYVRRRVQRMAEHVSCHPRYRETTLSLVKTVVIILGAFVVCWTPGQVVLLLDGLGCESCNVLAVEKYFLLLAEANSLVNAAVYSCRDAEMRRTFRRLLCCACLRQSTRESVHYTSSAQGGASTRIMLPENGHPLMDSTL

SMILES: CCCCCCCC/C=C\CCCCCCCC(=O)OCC(COP(O)(O)=S)OC (racemic) [OMPT, 1-oleoyl-sn2-O-methyl-rac-glycero-3-phosphothionate]
- calcium mobilization ([1]; Sf9 cells expressing LPA2, FIG. 58B): did not induce calcium mobilization
- EC50 ([1]; Sf9 cells expressing LPA2, read-out: EC50 of increase in intracellular calcium concentration): > 10000 nM
- activation of PKA [2]: does not
- activation in GTP[γ-35S] binding assay [3]: does not activate
- cellular proliferation and prevention of growth factor withdrawal-induced apoptosis [4]: increase cellular proliferation and prevent growth factor withdrawal-induced apoptosis
- induction of VASP phosphorylation at Ser157 PKA site [5]: Neither OMPT nor EGF increased phosphorylation of VASP
- EC50 [6]: ~9 nM
- stimulation of membrane ruffling and cell migration [7]: induces neither morphology changes nor migration
- HA-Erk1 phosphorylation [8]: stimulates Erk1 phosphorylation at all concentrations tested
- stimulation of calcium mobilization ([9]; FIG. 3): but not OMPT, stimulates calcium mobilization
- EC50 ([9]; Homo sapiens, HT-29): < 1000 nM

Reference: patent US20080071116A1, “Modulators of Lysophosphatidic Acid (Lpa) Signaling and the Use Thereof” (THE BOARD OF REGENTS OF THE UNIVERSITY OF TEXAS SYSTEM, priority 2004, published 2008)
